Assay results: US9693556B2, “Herbicidal pyridazinone derivatives” (SYNGENTA LIMITED, priority 2011, dated 2017)

Experiments:
Assay type in all cases: in vivo
[1] = test system: Solanum nigrum (SOLNI); assay: Post-emergence herbicidal glasshouse test on Solanum nigrum; conditions: post-emergence; 1000 g/h; evaluated after 13 days
Method in brief: (§1)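 Herbicidal damage was rated 13 days after treatment on a five-point scale, where 5 denotes 80-100% and 1 denotes 0-19% damage. Spraying at 1000 g/h followed sowing by one day (pre-emergence) or eight days (post-emergence).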

[2] = test system: Amaranthus retoflexus (AMARE); assay: Pre-emergence herbicidal glasshouse test on Amaranthus retoflexus; conditions: pre-emergence; 1000 g/h; evaluated after 13 days
Method in brief: as §1

[3] = test system: Solanum nigrum (SOLNI); assay: Pre-emergence herbicidal glasshouse test on Solanum nigrum; conditions: pre-emergence; 1000 g/h; evaluated after 13 days
Method in brief: as §1

[4] = test system: Echinochloa crus-galli (ECHCG); assay: Post-emergence herbicidal glasshouse test on Echinochloa crus-galli; conditions: post-emergence; 1000 g/h; evaluated after 13 days
Method in brief: as §1

[5] = test system: Setaria faberi (SETFA); assay: Pre-emergence herbicidal glasshouse test on Setaria faberi; conditions: pre-emergence; 1000 g/h; evaluated after 13 days
Method in brief: as §1

[6] = test system: Alopecurus myosuroides (ALOMY); assay: Pre-emergence herbicidal glasshouse test on Alopecurus myosuroides; conditions: pre-emergence; 1000 g/h; evaluated after 13 days
Method in brief: as §1

[7] = test system: Echinochloa crus-galli (ECHCG); assay: Pre-emergence herbicidal glasshouse test on Echinochloa crus-galli; conditions: pre-emergence; 1000 g/h; evaluated after 13 days
Method in brief: as §1

[8] = test system: Alopecurus myosuroides (ALOMY); assay: Post-emergence herbicidal glasshouse test on Alopecurus myosuroides; conditions: post-emergence; 1000 g/h; evaluated after 13 days
Method in brief: as §1

[9] = test system: Amaranthus retoflexus (AMARE); assay: Post-emergence herbicidal glasshouse test on Amaranthus retoflexus; conditions: post-emergence; 1000 g/h; evaluated after 13 days
Method in brief: as §1

[10] = test system: Ipomoea hederacea (IPOHE); assay: Post-emergence herbicidal glasshouse test on Ipomoea hederacea; conditions: post-emergence; 1000 g/h; evaluated after 13 days
Method in brief: as §1

[11] = test system: Ipomoea hederacea (IPOHE); assay: Pre-emergence herbicidal glasshouse test on Ipomoea hederacea; conditions: pre-emergence; 1000 g/h; evaluated after 13 days
Method in brief: as §1

[12] = test system: Setaria faberi (SETFA); assay: Post-emergence herbicidal glasshouse test on Setaria faberi; conditions: post-emergence; 1000 g/h; evaluated after 13 days
Method in brief: as §1

## Cn1ncc(-c2ccc(F)cc2[S+](C)[O-])c(O)c1=O (stereo not drawn) [Compound 1.057]
[1]
  POST Application SOLNI herbicidal damage (five point scale): 5 (5=80-100% damage)
[2]
  PRE Application AMARE herbicidal damage (five point scale): 5 (5=80-100% damage)
[3]
  PRE Application SOLNI herbicidal damage (five point scale): 5 (5=80-100% damage)
[4]
  POST Application ECHCG herbicidal damage (five point scale): 5 (5=80-100% damage)
[5]
  PRE Application SETFA herbicidal damage (five point scale): 5 (5=80-100% damage)
[6]
  PRE Application ALOMY herbicidal damage (five point scale): 5 (5=80-100% damage)
[7]
  PRE Application ECHCG herbicidal damage (five point scale): 5 (5=80-100% damage)
[8]
  POST Application ALOMY herbicidal damage (five point scale): 5 (5=80-100% damage)
[9]
  POST Application AMARE herbicidal damage (five point scale): 5 (5=80-100% damage)
[10]
  POST Application IPOHE herbicidal damage (five point scale): 5 (5=80-100% damage)
[11]
  PRE Application IPOHE herbicidal damage (five point scale): 2 (2=20-39% damage)
[12]
  POST Application SETFA herbicidal damage (five point scale): 5 (5=80-100% damage)

## Cn1ncc(-c2ccc(C(F)(F)F)nc2O)c(O)c1=O [Compound 4.006]
[1]
  POST Application SOLNI herbicidal damage (five point scale): 4 (4=60-79% damage)
[2]
  PRE Application AMARE herbicidal damage (five point scale): 1 (1=0-19% damage)
[3]
  PRE Application SOLNI herbicidal damage (five point scale): 1 (1=0-19% damage)
[4]
  POST Application ECHCG herbicidal damage (five point scale): 1 (1=0-19% damage)
[5]
  PRE Application SETFA herbicidal damage (five point scale): 1 (1=0-19% damage)
[6]
  PRE Application ALOMY herbicidal damage (five point scale): 1 (1=0-19% damage)
[7]
  PRE Application ECHCG herbicidal damage (five point scale): 1 (1=0-19% damage)
[8]
  POST Application ALOMY herbicidal damage (five point scale): 1 (1=0-19% damage)
[9]
  POST Application AMARE herbicidal damage (five point scale): 3 (3=40-59% damage)
[10]
  POST Application IPOHE herbicidal damage (five point scale): 2 (2=20-39% damage)
[11]
  PRE Application IPOHE herbicidal damage (five point scale): 1 (1=0-19% damage)
[12]
  POST Application SETFA herbicidal damage (five point scale): 1 (1=0-19% damage)
